# Results taken from patent US6323204A, “Methods for using (2-imidazolin-2-ylamino) quinoxaline derivatives” (Allergan, priority 1998, dated 2001).
# Where two headings read alike, the source gives them in different places.
# How the values were obtained:
# [1] = in words; stated as known; cited from earlier work
# [2] = rat activity test (central nervous system anesthetization activity); type: in vivo; conditions: iv, read-out: ID50 Rat Activity
# Protocol: (§1) Two (2) animal models were utilized to determine the central nervous system anesthetization activity of the quinoxaline derivative produced in Example 2.
# (§2) The first of these animal models is identified generally as the mouse hexobarbital sleep time test. Briefly, the compound in question (in a dosage range of between 10 and 500 micrograms/kg, i.v.) and the barbiturate hexobarbital (75 mg/kg, i.p) are coadministered to mice weighing 20 to 22 grams. […] Sleep time is assessed as the time associated with the loss of the animal's reflex to right itself when placed on its back. The ED15 is estimated from dose-response data as the effective dose which potentiates sleep time by 15 minutes. The second animal model used is identified generally as the rat activity test. Briefly, rats weighing 140 to 160 grams are placed into an environmentally isolated activity monitor five (5) minutes following administration of the compound in question (in the range of 1 to 1000 micrograms/kg, i.v.). Horizontal activity, measured in counts is determined for five (5) minutes.
# (§3) The final quinoxaline derivative produced in Example 2 was tested using both of the above-noted animal models. For comparison purposes, clonidine and its hydrophilic analog, p-amino-clonidine, were also tested using these animal models.
# [3] = mouse hexobarbital sleep time test (central nervous system anesthetization activity); type: in vivo; conditions: i.v., with hexobarbital 75 mg/kg i.p., dose which potentiates sleep time by 15 minutes
# Protocol: as §1, §2, §3
# [4] = in words
# Protocol: The final quinoxaline derivative produced in Example 2, that is 5-bromo-6-(2-imidazolin-2-ylamino)quinoxaline, was tested for central nervous system anesthetization activity as follows.
# as §1, §2
# The final quinoxaline derivative produced in Example 2 was tested using both of the above-noted animal models. […]
SMILES,anesthetization activity (known) [1],ED50 ([2]; Rattus norvegicus),ED15 Mouse Sleep-Time [3],central nervous system anesthetization activity compared with the hydrophilic analog of clonidine (p-amino clonidine) [4],central nervous system anesthetization activity ([4]; mouse sleep time and rat activity tests),"ED50 ([2]; rat, i.v., dose which decreases horizontal activity by 50%)"
Clc1cccc(Cl)c1N=C1NCCN1 [Clonidine],significant anesthetization activity,0.026 mg/kg,75 µg/kg,–,–,–
"Brc1c(NC2=NCCN2)ccc2nccnc12 [Example 2, 5-bromo-6-(2-imidazolin-2-ylamino) quinoxaline]",–,0.077 mg/kg,116 µg/kg,substantially more of such activity,substantial central nervous system anesthetization activity,–
Nc1cc(Cl)c(NC2=NCCN2)c(Cl)c1 [p-Amino Clonidine],–,–,> 500 µg/kg,–,–,0.302 mg/kg
